Literature values as cited in patent publication US20110311589A1 (priority 2008, published 2011).

Test system: helminthiasis
Details: in vivo

c1ccc([C@H]2CN3CCSC3=N2)cc1 [Levamisole]
Dosage level at which particularly effective as anthelmintic: approximately 7.5 mg per kg of animal body weight
